Measured values: patent publication US12319939B2, “Carbonyl reductase mutant and its application” (priority 2023, dated 2025)

Assays:
[1] = tested on: CCOC(=O)CCCCC(=O)CCCl; experiment: Enzyme kinetic parameters (NADPH consumption at 340 nm), triple mutant; format: biochemical, Candida orthopsilosis Co 90-125; conditions: other: R129L/D210T/S126A, substrate 0.1-10 mM, PB pH 7.0, 30° C.
Description: (§1) The present disclosure starts with the substrate channel of the carbonyl reductase protein structure of Candida orthopsilosis Co 90-125 (amino acid sequence as shown in SEQ ID NO: 1) with ID XP 003867714.1 in Genbank, analyzes the entrance segment and internal structural characteristics of the substrate channel, and performs iterative saturation mutagenesisit through semi-rational design, so as to determine that the key factor affecting the initial enzymatic properties of carbonyl reductase is the amino acids at positions R129, D210 and S126. […] On this basis, serine (Ser) at position 126 is replaced with alanine (Ala), to obtain the triple mutant R129L/D210T/S126A (amino acid sequence as shown in SEQ ID NO: 5).
(§2) While the triple mutation changed from AGC to GCG at codons 376-378 of the carbonyl reductase double mutant gene sequence, thereby replacing serine(S) with alanine (A) at position 126 of the amino acid sequence, to obtain a triple mutant, wherein its amino acid sequence is shown in SEQ ID NO: 5, and the nucleotide sequence of the coding gene is shown in SEQ ID NO: 6.
(§3) One enzyme activity unit U is defined as the amount of enzyme required to consume 1 μmol NADPH within 1 minute.
(§4) The substrate concentration was set to be 0.1-10 mM, and the rest was the same enzyme activity determination system and reaction conditions as described above.

[2] = tested on: CCOC(=O)CCCCC(=O)CCCl; experiment: Enzyme kinetic parameters (NADPH consumption at 340 nm), double mutant; format: biochemical, Candida orthopsilosis Co 90-125; conditions: other: R129L/D210T, substrate 0.1-10 mM, PB pH 7.0, 30° C.
Description: as §1
(§5) The double mutation R129L/D210T changed the codons 385-387 of the carbonyl reductase gene sequence from CGT to CTG, thereby replacing the 129th position of the amino acid sequence from arginine (R) to leucine (L); changed the codons 628-630th position from GAT to ACC, thereby the 210th position of the amino acid sequence from aspartic acid (D) to threonine (T), to obtain an enzyme mutant, wherein its amino acid sequence is shown in SEQ ID NO: 3, and the nucleotide sequence of the coding gene is shown in SEQ ID NO: 4.
as §3, §4

[3] = target: Candida orthopsilosis Co 90-125 carbonyl reductase CoCR 13 (Genbank XP_003867714.1), wild type (WT), SEQ ID NO: 1 (Lodderomyces orthopsilosis, UniProt H8WZT2); experiment: Enzyme kinetic parameters (NADPH consumption at 340 nm), initial carbonyl reductase; format: biochemical
Description: On this basis, serine (Ser) at position 126 is replaced with alanine (Ala), to obtain the triple mutant R129L/D210T/S126A (amino acid sequence as shown in SEQ ID NO: 5).
Through gene mining, the carbonyl reductase gene with Genbank ID XP_003867714.1 was screened from the NCBI database. The open reading frame of this gene is 1005 bp long, the carbonyl reductase encoded by it consists of 334 amino acids, and its amino acid sequence (334aa) is:
as §3, §4

[4] = target: Candida orthopsilosis Co 90-125 carbonyl reductase CoCR 13 variant R129L/D210T/S126A, SEQ ID NO: 5 (Lodderomyces orthopsilosis, UniProt H8WZT2, D210T/R129L/S126A); experiment: Enzyme kinetic parameters (NADPH consumption at 340 nm), triple mutant; format: biochemical
Description: as §1, §2, §3, §4

[5] = target: Candida orthopsilosis Co 90-125 carbonyl reductase CoCR 13 variant R129L/D210T, SEQ ID NO: 3 (Lodderomyces orthopsilosis, UniProt H8WZT2, D210T/R129L); experiment: Enzyme kinetic parameters (NADPH consumption at 340 nm), double mutant; format: biochemical
Description: as §1, §5, §3, §4

[6] = WT, substrate 0.1-10 mM, NADPH, PB pH 7.0, 30° C.
[7] = R129L/D210T/S126A, substrate 0.1-10 mM, NADPH, PB pH 7.0, 30° C.
[8] = R129L/D210T, substrate 0.1-10 mM, NADPH, PB pH 7.0, 30° C.

Candida orthopsilosis Co 90-125 carbonyl reductase CoCR 13 variant R129L/D210T/S126A, SEQ ID NO: 5 (Lodderomyces orthopsilosis Co 90-125; D210T/R129L/S126A)
Km [1]: 0.81 ± 0.11 mM

Candida orthopsilosis Co 90-125 carbonyl reductase CoCR 13 variant R129L/D210T, SEQ ID NO: 3 (Lodderomyces orthopsilosis Co 90-125; D210T/R129L)
Km [2]: 1.74 ± 0.16 mM

CCOC(=O)CCCCC(=O)CCCl [8-chloro-6-oxooctanoic acid ethyl ester]
Relative catalytic efficiency ([3]; WT as reference (1.00)): 1.00
Catalytic efficiency (kcat/Km) [3, 6]: 0.92 mM⁻¹ s⁻¹
Number of conversions (kcat) [3, 6]: 4.7 ± 0.33 s⁻¹
Relative catalytic efficiency ([4]; R129L/D210T/S126A relative to WT): 93.42
Catalytic efficiency (kcat/Km) [4, 7]: 85.95 mM⁻¹ s⁻¹
Number of conversions (kcat) [4, 7]: 69.46 ± 2.50 s⁻¹
catalytic efficiency increase compared to the initial carbonyl reductase ([4]; triple mutant vs initial carbonyl reductase): 93.42 times
Relative catalytic efficiency ([5]; R129L/D210T relative to WT): 31.65
Catalytic efficiency (kcat/Km) [5, 8]: 29.12 mM⁻¹ s⁻¹
Number of conversions (kcat) [5, 8]: 50.60 ± 1.49 s⁻¹
catalytic efficiency increase compared to the initial carbonyl reductase ([5]; double mutant vs initial carbonyl reductase): 31.65 times
